# Source: patent US20240269129A1, “GLYCOGEN SYNTHASE KINASE 3 (GSK3) INHIBITORS FOR TREATING CTNNB1 SYNDROME” (Trustees of Tufts College, priority 2021, published 2024)
# “Also recorded” adds a separate entry of the source.
# Columns and labels:
# GSK3α = GSK3α (Homo sapiens, UniProt P49840); assay: GSK3α inhibition, motility-shift microfluidic assay (Caliper) at Km of ATP; assay type: biochemical
# Method: FIG. 12. […] (a) General synthetic scheme for synthesis of the pyrazolo-tetrahydroquinolinone scaffold. (b) IC50 GSK3α and GSK3β values for inhibition were determined at Km of ATP in a motility-shift microfluidic assay (Caliper, MA) measuring phosphorylation of a synthetic substrate. Values are average of three or more experiments. Data are shown as IC50 values in μM±standard deviation. Compounds were tested in duplicate in a 12-point dose curve with 3-fold dilution starting at 33.3 μM. […] Each inhibitor was screened against 311 kinases at a 10 μM concentration.
# GSK3β = GSK3β (Homo sapiens, UniProt P49841); assay: GSK3β inhibition, motility-shift microfluidic assay (Caliper) at Km of ATP; assay type: biochemical; conditions: for IC50: at Km of ATP
# Method: FIG. 12. Design and characterization of first paralog selective inhibitors of GSK3α and GSK3β. (a) General synthetic scheme for synthesis of the pyrazolo-tetrahydroquinolinone scaffold. (b) IC50 GSK3α and GSK3β values for inhibition were determined at Km of ATP in a motility-shift microfluidic assay (Caliper, MA) measuring phosphorylation of a synthetic substrate. Values are average of three or more experiments. Data are shown as IC50 values in μM±standard deviation. Compounds were tested in duplicate in a 12-point dose curve with 3-fold dilution starting at 33.3 μM. […] Each inhibitor was screened against 311 kinases at a 10 μM concentration. Kinases with >50% inhibition are depicted (percentage inhibition proportional to size of red dot).
# Structure-based design has been aimed towards maximizing steric requirement at the R position and the corresponding differences within the selectivity pockets of GSK3α and GSK3β. […] These modifications and increased binding affinities were tolerant of simple substitutions on the phenyl ring (cf. BRD0320).
# [1] = test system: β-catenin heterozygous mice; assay: Contextual fear conditioning (learning) in β-catenin heterozygous mice; assay type: in vivo, mouse; conditions: 30 mg/kg doses, young adult βcatHet mice
# Method: FIG. 2. […] Classic spatial learning task that pairs association of a particular context with a mild foot shock; freezing in the context is measured as an indicator of learning; n=26 control, 24 BcatHet; p<0.0001 Repeated Measure ANOVA; **p<0.01, ***p<0.001 multiple comparison t-test.
# (§1) Drug treatments using small molecule GSK3α and GSK3β inhibitors were tested in vivo, for safe and effective amelioration of the phenotypes by assaying β-catenin protein levels, learning and motor skills effects of drug vs. vehicle on CTNNB1 heterozygote mice and control littermates. In an example, a study includes administering the small molecule GSK3 inhibitor in sequential daily doses to the βcatHet mice. The daily doses can be administered, for example, for five days, or four days, or any other number of days. At some time after the last dose, such as 1 hour, the grip strength test can be administered. Additionally, the contextual fear conditioning can be performed. Sometime later, such as 1 day later, the contextual fear conditioning tests can be performed.
# (§2) Mice were administered 30 mg/kg doses of the respective compounds in the present Example. Samples of the brain and muscle from control mice, βcatHet mice (untreated), and βcatHet mice (treated) were tested for levels of β-catenin.
# [2] = test system: β-catenin heterozygous mice; assay: Muscle grip strength test in β-catenin heterozygous mice; assay type: in vivo, mouse; conditions: 30 mg/kg doses, young adult βcatHet mice
# Method: as §1, §2
# β-catenin protein levels = β-catenin protein levels in brain and skeletal muscle of treated β-catenin heterozygous mice, quantitative immunoblotting; assay type: in vivo, mouse; conditions: 30 mg/kg doses, young adult βcatHet mice
# Method: as §1, §2
# [3] = test system: CTNNB1 heterozygous iPSCs; assay: β-catenin and DKK1 protein levels in CTNNB1 heterozygous iPSCs, pilot dose-response, quantitative immunoblotting; assay type: cell-based, human
# Text: FIG. 14. FIG. 1. GSK3α,β inhibitors increase β-cat protein levels in (a) human CTNNB1 heterozygous glutamatergic neurons treated with BRD0320, relative to vehicle-treated het neurons, and (b) CTNNB1 het iPSCs treated with BRD0320 and LY2090314 at the indicated concentrations. Wnt target, DKK1 protein levels show similar increases to β-cat. Histograms showing comparison to (a) WT neuron levels set as 1 and (b) vehicle-treated het iPSC levels set as 1. LY2090314 increases β-cat protein levels at 10× lower concentration relative to BRD0320.
# A human pluripotent stem cell line (iPSC) that lacks any pathogenic variants was made heterozygous for CTNNB1 via CRISPR-Cas9 gene editing of one allele. A premature termination (PTC+1) frameshift was introduced based on a CTNNB1 syndrome patient mutation. Haploinsufficiency was confirmed. The iPSCs were differentiated to cortical glutamatergic neurons by transfection with the transcription factor human neurogenin 2. […] As shown in FIG. 14 (a), beta-catenin protein levels were measured 24 hrs later by quantitative immunoblotting in the GSK3 inhibitor treated CTNNB1 heterozygous neurons, relative to vehicle-treated heterozygous neurons and wildtype neurons.
# Beta-catenin protein levels were measured 24 hrs later by quantitative immunoblotting in the GSK3 inhibitor treated CTNNB1 heterozygous iPSCs, relative to vehicle-treated heterozygous iPSCs.
# Sequence of GSK3β (P49841 whole entry): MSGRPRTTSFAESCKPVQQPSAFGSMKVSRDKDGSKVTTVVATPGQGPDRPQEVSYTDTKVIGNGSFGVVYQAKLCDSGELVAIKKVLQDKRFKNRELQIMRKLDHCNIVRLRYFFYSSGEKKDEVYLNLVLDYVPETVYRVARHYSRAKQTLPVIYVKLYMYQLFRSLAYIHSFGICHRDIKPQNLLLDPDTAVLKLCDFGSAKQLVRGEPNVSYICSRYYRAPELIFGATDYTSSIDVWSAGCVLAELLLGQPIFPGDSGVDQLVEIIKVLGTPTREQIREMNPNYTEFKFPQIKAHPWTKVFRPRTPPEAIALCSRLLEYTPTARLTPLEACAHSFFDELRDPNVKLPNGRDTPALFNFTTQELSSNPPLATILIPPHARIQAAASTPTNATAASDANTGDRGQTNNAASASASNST
# Sequence of GSK3α (P49840 whole entry): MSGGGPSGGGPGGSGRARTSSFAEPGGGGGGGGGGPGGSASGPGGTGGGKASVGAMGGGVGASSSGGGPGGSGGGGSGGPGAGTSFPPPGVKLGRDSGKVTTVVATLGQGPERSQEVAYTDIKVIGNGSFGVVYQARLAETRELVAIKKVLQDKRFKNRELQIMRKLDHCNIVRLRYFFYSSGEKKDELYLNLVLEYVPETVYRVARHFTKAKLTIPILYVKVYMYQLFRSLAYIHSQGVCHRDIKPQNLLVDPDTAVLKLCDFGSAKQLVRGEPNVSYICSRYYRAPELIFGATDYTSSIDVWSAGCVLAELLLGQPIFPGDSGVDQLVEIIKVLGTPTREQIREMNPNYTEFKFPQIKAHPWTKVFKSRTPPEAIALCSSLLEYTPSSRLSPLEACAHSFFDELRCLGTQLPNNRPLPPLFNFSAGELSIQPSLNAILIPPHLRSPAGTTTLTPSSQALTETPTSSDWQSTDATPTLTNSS
SMILES,IC50 (GSK3β) [nM],learning (contextual fear conditioning) [1],muscle grip strength [2],also measured
CC1(C)CC(=O)C2=C(C1)Nc1n[nH]c(C3CC3)c1[C@]2(C)c1ccccc1 [BRD0209],,,,potency for the two paralogs GSK3α and GSK3β (GSK3α): Equipotency
CC[C@@]1(c2ccccc2)C2=C(CC(C)(C)CC2=O)Nc2[nH]ncc21 [BRD0705],515,did not display a significant trend to improvements; also recorded: slight trend (not significant) toward improvements,did not display a significant trend to improvements; also recorded: slight trend (not significant) toward improvements,
CC(C)(C)Cc1[nH]nc2c1[C@](C)(c1ccccc1)C1=C(CC(C)(C)CC1=O)N2 [BRD3731],15,slight significant improvement,significant increase; also recorded: trend toward improvement,IC50 (GSK3α; at Km of ATP): 215 nM; selectivity for GSK3β (GSK3β): 14 fold; β-catenin protein levels in β-catenin heterozygous mouse brain and skeletal muscle relative to vehicle treated heterozygote (β-catenin protein levels): significantly increased
"O=C1NC(=O)C(c2cnc3ccccn23)=C1c1cn2c3c(cc(F)cc13)CN(C(=O)N1CCCCC1)CC2 [LY2090314, 3-(9-fluoro-2-(piperidine-1-carbonyl)-1,2,3,4-tetrahydro-[1,4]diazepino[6,7,1-hi]indol-7-yl)-4-(imidazo[1,2-a]pyridin-3-yl)-1H-pyrrole-2,5-dione]",,,,"β-cat protein levels in CTNNB1 het iPSCs relative to vehicle-treated het iPSCs ([3]; BRD0320 10 μM, 30 μM, LY2090314 0.1 μM, 0.3 μM, 24 hrs): increase; concentration that increases β-cat protein levels, relative to BRD0320 ([3]; CTNNB1 het iPSCs): 10 × lower"
